# In publication PMC7495481, “Sequence specificity analysis of the SETD2 protein lysine methyltransferase and discovery of a SETD2 super-substrate” (Communications Biology, 2020):
# Where “and” joins values, the source holds several entries; their conditions need not be identical. Identical values can stand only once.
# Target: T1, SETD2 (Homo sapiens, UniProt Q9BYW2)
# T1 construct: SETD2 catalytic SET domain (amino acids 1347–1711, UniProt No: Q9BYW2); made in house; host or cells: E. coli
# T1 sequence (Q9BYW2 1347-1711): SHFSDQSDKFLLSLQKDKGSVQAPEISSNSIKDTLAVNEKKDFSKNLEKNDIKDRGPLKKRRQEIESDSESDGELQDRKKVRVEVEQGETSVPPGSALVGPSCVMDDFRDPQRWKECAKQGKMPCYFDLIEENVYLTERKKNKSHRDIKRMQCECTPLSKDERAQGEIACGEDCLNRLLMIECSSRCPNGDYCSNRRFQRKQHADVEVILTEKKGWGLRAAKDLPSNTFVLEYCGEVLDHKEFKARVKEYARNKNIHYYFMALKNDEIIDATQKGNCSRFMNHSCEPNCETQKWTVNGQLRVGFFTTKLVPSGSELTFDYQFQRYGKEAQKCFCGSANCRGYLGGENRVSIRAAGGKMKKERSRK
# Test: Peptide SPOT array target lysine methylation of selected non-histone peptides (Fig. 3b)
# Type: biochemical
# Conditions: Exp1–Exp3, 3–6 µM SETD2, 0.76 µM AdoMet, 60 min, pH 9
# Description: However, we could identify 166 possible targets, which contain partial matches to the substrate specificity profile. The possible methylation of these 166 putative substrates was investigated at the peptide level. For this, fifteen amino acid long peptides containing the sequence of the non-histone targets surrounding the predicted target lysine were synthesized on a membrane. The H3K36 (29–43) peptide (spots A1, I9), the super-substrate peptide (spots A3, I11) and the corresponding lysine to alanine mutation peptides (spot A2, I10, and A4, I12) were included as positive and negative controls (Fig. 3a, Supplementary Fig. 4 and Supplementary Table 2). The methylation reactions and the detection of the methylation signals were performed in duplicates as described above. We observed that all of the investigated peptides were more weakly methylated than the super-substrate peptide. […] In the next step, 20 of the peptides were selected for further investigation based on the methylation intensity and the known functions of the proteins to confirm the methylation at the predicted target site. The peptides were synthesized on another membrane, now including the target lysine to alanine mutation control peptides in each case. The methylation reactions and the detection of the signal were conducted as described above (Fig. 3b, Supplementary Fig. 5 and Supplementary Table 3).
# Fig. 3 Identification of non-histone substrates of SETD2. a Candidate non-histone peptide substrates were identified in the human proteome based on the SETD2 super-substrate specificity profile. The peptides were synthesized on a peptide SPOT array (Supplementary Table 2) and methylated by SETD2. As controls, the H3K36, H3K36A, ssK36 and ssK36A peptides were included on spots A1–A4 and I9–I12. The autoradiography image is an example of the obtained results. […] The quantification of the data of two experiments is shown in Supplementary Fig. 4. b Analysis of target lysine methylation of selected non-histone substrate peptides. Peptide SPOT arrays were synthesized containing the non-histone peptide substrates identified in panel A in addition to the lysine to alanine mutations presented on the array as every second spot (Supplementary Table 3). As controls, the H3K36, H3K36A, ssK36, and ssK36A mutant peptides were included on spot A1–A4 and C5–C8. The autoradiography image is an example of the obtained results. The quantification of the data of three experiments is shown in Supplementary Fig. 5. Peptides selected for furhter analysis are highlighted by blue circles. c Protein methylation of FBN1 and confirmation of the target lysine methylation. Both wild type (WT) and mutant (K666R) FBN1 were purified and equal amounts were methylated by SETD2 (2 µM). […] The size of FBN1 is indicated by an asterisk.
# (§1) Peptide arrays containing fifteen amino acid long peptides were synthesized using the SPOT synthesis method[48] with an Autospot peptide array synthesizer (Intavis AG, Köln, Germany). After synthesis, the obtained membranes were pre-incubated in methylation buffer (20 mM Tris/HCl pH 9, 0.01% Triton X-100, 10 mM DTT, 1.5 mM MgCl2) for 5 min on a shaker. Thereafter, the membranes were incubated in methylation buffer supplemented with 0.76 µM radioactively labeled AdoMet (PerkinElmer) and 3–6 µM SETD2 enzyme for 60 min on a shaker. After methylation, the membranes were washed 5 times for 5 min in wash buffer (100 mM NH4HCO3, 1% SDS) and incubated in amplify NAMP100V (GE Healthcare) for 5 min. This was followed by the exposure of the membranes to a hyperfilm^TM high performance autoradiography (GE Healthcare) film at −80 °C in the dark. The films were developed with an Optimax Typ TR machine after different exposue times. For quantification the signal intensities were measured with the Phoretix^TM software and analyzed with Microsoft Excel.
row,Sequence,"Relative methylation signal, Average"
1,"DDLYGAIKKLCCVQS [PIWL2, Piwi-like protein 2 peptide, target lysine 685]",0.4271
2,"KAPRGFLKRVFKRKK [CENPW, Centromere protein W peptide, target lysine 23]",0.677
3,"TPPLGGYAVTAKCFG [HDAC9 K to A, target lysine to alanine control]",0.4627
4,"LHNRGALKLTTGKCV [SIA8D, CMP-N-acetylneuraminate-poly-alpha-2,8-sialyltransferase peptide, target lysine 350]",0.4366
5,"KDVIGAFKKVFACCS [O2T11, Olfactory receptor 2T11 peptide, target lysine 299]",0.408
6,"LHNRGALALTTGKCV [SIA8D K to A, target lysine to alanine control]",0.2965
7,"EMSIGAIAIALEISL [HMCN1 K to A, target lysine to alanine control]",0.09371
8,"DDLYGAIAKLCCVQS [PIWL2 K to A, target lysine to alanine control]",0.3265
9,"GAIIGFIKVGYKKLF [ATAT, Alpha-tubulin N-acetyltransferase 1 peptide, target lysine 98]",0.7722
10,"KAPRGFLARVFKRKK [CENPW K to A, target lysine to alanine control]",0.3763
11,"STCYGGIAKGVCVRP [FBN2 K to A, target lysine to alanine control]",0.3693
12,KRIYGGFKSTAGKHP [HABP2],0.2413
13,"KRIYGGFASTAGKHP [HABP2 K to A, target lysine to alanine control]",0.2122
14,"AGARGYLATSLCVLG [DYSF K to A, target lysine to alanine control]",0.01828
15,"EMSIGAIKIALEISL [HMCN1, Hemicentin-1 peptide, target lysine 127]",0.3311
16,"LICIGALAKLCNHPC [RA54B K to A, target lysine to alanine control]",0.4423
17,"CRKLGGVAKSATFRS [TPD55 K to A, target lysine to alanine control]",0.6652
18,"GHPFGYLAASTALNC [INT6 K to A, target lysine to alanine control]",0.2106
19,"LWKIGFFKRPLKKKM [ITA1, Integrin alpha-1 peptide, target lysine 1170]",0.4107

row,Sequence,"Relative methylation signal, Average"
1,"YGPFGYIANPYNIFD [CAC1G K to A, target lysine to alanine control]",0.03839
2,"GHPFGYLKASTALNC [INT6, Integrator complex subunit 6 peptide, target lysine 369]",0.398
3,"RRGIGYLKLICFLIP [ANKAR, Ankyrin and armadillo repeat-containing protein peptide, target lysine 317]",0.4211
4,"STCYGGYARGQCIKP [FBN1 K to A, target lysine to alanine control]",0.2279
5,"TPPLGGYKVTAKCFG [HDAC9, Histone deacetylase 9 peptide, target lysine 927]",0.7696
6,"LWKIGFFARPLKKKM [ITA1 K to A, target lysine to alanine control]",0.403
7,"CRKLGGVKKSATFRS [TPD55, Tumor protein D55 peptide, target lysine 112]",0.7056
8,"STCYGGIKKGVCVRP [FBN2, Fibrillin-2 peptide, target lysine 711]",0.6873
9,"KDVIGAFAKVFACCS [O2T11 K to A, target lysine to alanine control]",0.2642
10,"ATFLGYFKSGLKYKK [GELS, Gelsolin peptide, target lysine 162]",0.5433
11,"YCLIGGVKMTRFICK [DLEC1, Deleted in lung and esophageal cancer protein 1 peptide, target lysine 494]",0.8047
12,"GAIIGFIAVGYKKLF [ATAT K to A, target lysine to alanine control]",0.4571
13,"ATFLGYFASGLKYKK [GELS K to A, target lysine to alanine control]",0.4943
14,"LICIGALKKLCNHPC [RA54B, DNA repair and recombination protein RAD54B peptide, target lysine 589]",0.598
15,"RRGIGYLALICFLIP [ANKAR K to A, target lysine to alanine control]",0.01267
16,"APRFGGVARPNRYRP [DS K to A, super-substrate K36A peptide, negative control]",0.1136 and 0.1005
17,"YCLIGGVAMTRFICK [DLEC1 K to A, target lysine to alanine control]",0.4812
18,"AGARGYLKTSLCVLG [DYSF, Dysferlin peptide, target lysine 338]",0.2902
19,"YGPFGYIKNPYNIFD [CAC1G, Voltage-dependent T-type calcium channel subunit alpha-1G peptide, target lysine 804]",0.9453

# Target: T1, SETD2
# Test: Peptide SPOT array methylation of H3K36 (29–43) variants, super-substrate design (Fig. 2a)
# Type: biochemical
# Conditions: SPOT array; 0.76 µM radioactive AdoMet, 3–6 µM SETD2, 60 min, pH 9; autoradiography
# Description: Based on these observations, we aimed to explore, if better substrates than H3K36 can be designed for SETD2. We synthesized peptide SPOT arrays including H3K36 (29–43) as a positive control and the H3K36A mutant as a negative control, in which up to 5 combined mutations were systematically introduced that converted the original H3K36 residues into residues that are more favored (Fig. 2a and Supplementary Table 1). This peptide array was methylated by SETD2 as described above and the methylation signal was captured by autoradiography.
# Fig. 2 Design of an optimized SETD2 peptide substrate and analysis of its methylation. a Variants of the H3K36 (29–43) peptide containing up to five mutations (Supplementary Table 1) were synthesized on a cellulose membrane and methylated by SETD2. The signal of the transferred radioactive methyl groups was detected by autoradiography. Spots A1 and B15 contain the H3K36 sequence, A2 and B16 the H3K36A peptide. Two films with different exposure times are shown to visualize weaker methylated spots as well. b Comparison of the methylation of purified super-substrate (ssK36) and the H3K36 peptides. […] Methylation reactions were conducted using 20 µM peptide and 6 µM enzyme. The lower panels display autoradiography films after different exposure times allowing to compare the methylation levels of the different samples. For comparison, different dilutions of the methylated ssK36 were loaded as indicated. c Time course of ssK36 peptide methylation determined under single turnover conditions using 5 µM substrate and 6 µM enzyme. […] The gels with the radioactive ssK36 (5 µl loaded per well) and H3K36 peptides (20 µl loaded per well) were exposed together to the same x-ray film. […] An enlargement of the H3K36 data with adjusted y-axis scale is shown in Supplementary Fig. 3d.
# as §1
row,Sequence,peptide array methylation of H3K36 variants (in words)
1,APRFGGVKKPHRYRP [A31R/T32F],stepwise improvement of activity with increasing number of mutations
